Several values for one entry are separate records, joined by “and”; a condition that tells them apart may be missing. Equal entries are not always repeated. Each block holds one compound with its values, some of them ahead of it.
Tests used:
SNAT2 [1] = experiment: Radiolabelled proline uptake in amino acid depleted SKOV3 cells; assay type: cell-based, human
Description: (§1) Functional characterisation of plasma membrane transporters in human cancer cells was determined at 37°C using an array of radiolabelled amino acid substrates. Modified Hanks HEPES-buffered salts solution (mHBSS; 137 mM NaCl; 5.4 mM KCl; 2.7 mM K2HPO4; 1 mM CaCl2; 0.5 mM MgCl2; 0.44 mM KH2PO4; 0.4 mM MgSO4; 5 mM D-glucose; 5 mM HEPES; pH 7.4) was used to wash and incubate cells where sodium dependent transport was measured, while N-methyl-D-glucamine (NMDG) and potassium salts substituted sodium in NMDG mHBSS to measure sodium independent uptake. For the assay, cells were seeded in 35 mm dishes and, once confluent, were washed thrice with warm mHBSS solution and incubated with mHBSS containing an 100 µM amino acid at a final specific activity of ≥2000 cpm/nmol (U-[^14C]amino acids were from PerkinElmer). After 6 min, cells were washed thrice with ice-cold mHBSS, lysed with 500 µl of 0.1 M HCl, detached with a cell scraper and triturated. A 400 µl aliquot was used for scintillation counting, while the remainder was saved for protein mass quantification by Bradford assay. Transport rates were normalised to the protein content of the culture dish.
(§2) IC50 were calculated using equation y=ymax(1−x/x+IC50)

MDA-MB-231 cells = experiment: Growth assay (IncuCyte confluence), MDA-MB-231; assay type: cell-based, human; set-up: key to Growth (Figure 6A) / cell confluence (Figure 6F): % confluence; conditions: for Growth (Figure 6A): MDA-MB-231
Description: Cells were seeded on 96-well flat bottom plates at approximately 3000 cells/well and incubated in growth medium (DMEM/F12 supplemented with 10% FBS, 2 mM glutamine) for 24 h. The next day, the growth medium was aspirated and exchanged with 300 μL/well of growth medium containing compounds at the indicated concentration. For live cell analysis, plates were placed in the IncuCyte system (Essen Bioscience), which was housed in a cell incubator (37°C, humidified atmosphere composed of 95% air and 5% CO2) and confluence measured at 6-h intervals or at the assay endpoint when untreated control cells reached a confluency >90%. Antibiotics (10 U/mL penicillin and 10 μg/ml streptomycin) were included in the treatment solutions.
Growth curves were generated using the Gompertz function of OriginPro software: y=ae^−e^(−k(x−xc))
Where a is the maximum confluence or upper asymptote, k is the growth rate coefficient, xc is the time point at which 50% confluence is reached (inflection point) and e is Euler’s number. Cell growth data are shown as % confluence.
Synergism between drug combinations was quantified using ZIP synergy scoring as calculated by SynergyFinder ([Yadav et al., 2015]).

SNAT2 [2] = target: T1, SNAT2 (Homo sapiens, UniProt Q96QD8); experiment: Radiolabelled proline uptake in amino acid depleted SKOV3 cells; assay type: cell-based; set-up: SKOV3 cells pre-incubated in starvation medium for 24 h to induce SNAT2 expression; endogenous in cells; host or cells: SKOV3 ovarian cancer cells, amino acid depleted for 15 or 24 h
T1 sequence (Q96QD8 1-506): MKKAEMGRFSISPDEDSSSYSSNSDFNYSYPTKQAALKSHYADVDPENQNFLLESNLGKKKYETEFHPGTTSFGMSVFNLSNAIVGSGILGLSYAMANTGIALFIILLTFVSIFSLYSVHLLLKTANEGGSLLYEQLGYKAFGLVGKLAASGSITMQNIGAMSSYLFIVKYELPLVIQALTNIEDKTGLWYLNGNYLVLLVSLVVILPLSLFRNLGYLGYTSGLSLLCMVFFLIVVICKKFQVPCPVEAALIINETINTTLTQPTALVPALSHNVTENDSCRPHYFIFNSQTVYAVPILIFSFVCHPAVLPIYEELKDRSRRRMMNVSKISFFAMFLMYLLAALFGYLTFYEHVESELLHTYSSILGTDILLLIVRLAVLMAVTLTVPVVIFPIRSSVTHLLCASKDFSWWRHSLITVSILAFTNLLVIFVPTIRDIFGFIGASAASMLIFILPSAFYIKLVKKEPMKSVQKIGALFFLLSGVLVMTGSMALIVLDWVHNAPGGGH
Description: as §1, §2

SMILES: C[N+](C)(C)CC(=O)O [Betaine, betaine]
- inhibition of proline uptake (SNAT2 [1]; 10 mM, 100 µM proline, Figure 4A (24 h starvation)): 30%
- inhibition of proline uptake (SNAT2 [1]; 10 mM, Figure 4D (15 h starvation)): 60%
- Proline uptake (nmol / mg protein x 6 min) (SNAT2 [1]; Figure 4A, 10mM, replicates 1-3): 14.3516 nmol / mg protein x 6 min and 14.2805 nmol / mg protein x 6 min and 13.5695 nmol / mg protein x 6 min
- Proline uptake (nmol / mg protein x 6 min) (SNAT2 [1]; Figure 5B, reference inhibitors, replicates): 7.636 nmol / mg protein x 6 min and 7.165 nmol / mg protein x 6 min and 7.435 nmol / mg protein x 6 min and 7.421 nmol / mg protein x 6 min

- SNAT2 transport rate of proline (SNAT2 [2]; Concentration 0.01 uM, betaine resistant transport subtracted): 5.421 nmol / mg protein x 6 min
- SNAT2 transport rate of proline (SNAT2 [2]; Concentration 0.03 uM): 5.227 nmol / mg protein x 6 min
- SNAT2 transport rate of proline (SNAT2 [2]; Concentration 0.1 uM): 4.344 nmol / mg protein x 6 min
- SNAT2 transport rate of proline (SNAT2 [2]; Concentration 0.3 uM): 3.331 nmol / mg protein x 6 min
- SNAT2 transport rate of proline (SNAT2 [2]; Concentration 1 uM): 2.267 nmol / mg protein x 6 min
- SNAT2 transport rate of proline (SNAT2 [2]; Concentration 3 uM): -0.2231 nmol / mg protein x 6 min
- SNAT2 transport rate of proline (SNAT2 [2]; Concentration 10 uM): -0.6681 nmol / mg protein x 6 min
- IC50 (SNAT2 [2]; betaine-sensitive fraction of proline uptake, SKOV3 AA- (15h)): 800 ± 400 nM
- IC50 (SNAT2 [2]; in two different assays): 800 to 3000 nM
SMILES: Cc1ccc(S(=O)(=O)N(C)c2ccsc2C(=O)NCc2ccccc2C(F)(F)F)cc1 [Compound 57_E, 3-(N-methyl (4-methylphenyl)sulfonamido)-N-(2-trifluoromethylbenzyl)thiophene-2-carboxamide]
- tolerated concentration (MDA-MB-231 cells; MDA-MB-231, growth medium): up to 30 μM
- Growth (Figure 6A) (MDA-MB-231 cells; concentration 1): 82.35 and 90.35 and 97.85
- Growth (Figure 6A) (MDA-MB-231 cells; concentration 3): 76.3 and 97.1 and 98.3
- Growth (Figure 6A) (MDA-MB-231 cells; concentration 10): 70.5 and 94.85 and 92.9
- Growth (Figure 6A) (MDA-MB-231 cells; concentration 30): 68.4 and 70.75 and 88.35
- Growth (Figure 6A) (MDA-MB-231 cells; concentration 100): 57.95 and 91.15 and 66.7
- inhibition of proline uptake (SNAT2 [1]; 30 µM, Figure 4A): inhibition equivalent to betaine
- Proline uptake (nmol / mg protein x 6 min) (SNAT2 [1]; Figure 4A, screening compounds, replicates 1-3): 12.1271 nmol / mg protein x 6 min and 12.3527 nmol / mg protein x 6 min and 11.9613 nmol / mg protein x 6 min
- Proline uptake (nmol / mg protein x 6 min) (SNAT2 [1]; Figure 5B, 0.03 uM): 13.4934 nmol / mg protein x 6 min and 12.6179 nmol / mg protein x 6 min and 11.806 nmol / mg protein x 6 min and 12.3756 nmol / mg protein x 6 min
- Proline uptake (nmol / mg protein x 6 min) (SNAT2 [1]; Figure 5B, 0.1 uM): 11.4589 nmol / mg protein x 6 min and 11.5974 nmol / mg protein x 6 min and 12.2114 nmol / mg protein x 6 min and 11.4952 nmol / mg protein x 6 min
- Proline uptake (nmol / mg protein x 6 min) (SNAT2 [1]; Figure 5B, 0.3 uM): 9.658 nmol / mg protein x 6 min and 10.0504 nmol / mg protein x 6 min and 12.5202 nmol / mg protein x 6 min and 8.873 nmol / mg protein x 6 min
- Proline uptake (nmol / mg protein x 6 min) (SNAT2 [1]; Figure 5B, 1 uM): 8.923 nmol / mg protein x 6 min and 10.4357 nmol / mg protein x 6 min and 8.533 nmol / mg protein x 6 min
- Proline uptake (nmol / mg protein x 6 min) (SNAT2 [1]; Figure 5B, 3 uM): 6.737 nmol / mg protein x 6 min and 7.879 nmol / mg protein x 6 min and 6.95 nmol / mg protein x 6 min and 7.052 nmol / mg protein x 6 min
- Proline uptake (nmol / mg protein x 6 min) (SNAT2 [1]; Figure 5B, 10 uM): 6.707 nmol / mg protein x 6 min and 7.214 nmol / mg protein x 6 min and 6.31 nmol / mg protein x 6 min and 7.23 nmol / mg protein x 6 min
